Test results from BindingDB's records for PubMed 32883635 (National Institute of Pharmaceutical Education and Research …, 2020).

Target: T1, Enoyl-[acyl-carrier-protein] reductase [NADPH] FabI (Staphylococcus aureus (strain MRSA252), UniProt Q6GI75)
T1 sequence (Q6GI75 whole entry): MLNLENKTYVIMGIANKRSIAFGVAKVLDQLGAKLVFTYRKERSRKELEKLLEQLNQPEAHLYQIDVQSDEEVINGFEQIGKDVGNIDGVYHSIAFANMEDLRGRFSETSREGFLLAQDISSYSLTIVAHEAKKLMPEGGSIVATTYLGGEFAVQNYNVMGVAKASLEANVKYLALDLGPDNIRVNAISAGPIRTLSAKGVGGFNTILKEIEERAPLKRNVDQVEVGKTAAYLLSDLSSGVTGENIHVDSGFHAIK
Test: Inhibition of Staphylococcus aureus FabI assessed as inhibition of bacterial growth by measuring the NADH consumption rate at 20 mins

Row | SMILES | IC50 [nM]
1 | NS(=O)(=O)c1ccc(/N=C/C2=C(Cl)CCC=C2)cc1 | 0.35
2 | NS(=O)(=O)C1C=CC(NC(=O)CCCN2CCOCC2)C=C1 (stereo unspecified) | 0.31
3 | COc1cc(/C=N/c2ccc(S(N)(=O)=O)cc2)ccc1C(C)=O | 0.33

Target: not listed separately
Test: Inhibition of wild type Escherichia coli FabI assessed as inhibition of bacterial growth

Row | SMILES | Ki [nM]
4 | Cc1ccc(Oc2ccccc2)c(O)c1 [PT53] | 7
5 | Oc1cc(F)ccc1Oc1ccccc1 [PT55] | 0.7
6 | Oc1ccccc1Oc1ccccc1 [2-phenoxylphenol] | 0.5
